# Measured values reported in ChEMBL document CHEMBL3784917, “Recent Progress in Histone Demethylase Inhibitors” (J Med Chem, 2016).
# Experiments:
# [1] = target: T1, Lysine-specific histone demethylase 1A (Homo sapiens, UniProt O60341); experiment: Inhibition of human recombinant KDM1A using H3 (1 to 21 residues)-K4me2 peptide substrate by fluorescence coupling enzyme assay
# [2] = target: T1, Lysine-specific histone demethylase 1A
# HeLa = experiment: Antiproliferative activity against human HeLa cells assessed as reduction in cell viability after 72 hrs by MTT assay; type: functional, cell-based
# MDA-MB-231 = experiment: Antiproliferative activity against human MDA-MB-231 cells assessed as reduction in cell viability after 72 hrs by MTT assay; type: functional, cell-based; settings: MDA-MB-231, 72 h
# [3] = target: T2, Amine oxidase [flavin-containing] B (Homo sapiens, UniProt P27338); experiment: Inhibition of MAO-B (unknown origin) using MAO substrate incubated for 1 hr by MAO-Glo assay
# T2 sequence (P27338 whole entry): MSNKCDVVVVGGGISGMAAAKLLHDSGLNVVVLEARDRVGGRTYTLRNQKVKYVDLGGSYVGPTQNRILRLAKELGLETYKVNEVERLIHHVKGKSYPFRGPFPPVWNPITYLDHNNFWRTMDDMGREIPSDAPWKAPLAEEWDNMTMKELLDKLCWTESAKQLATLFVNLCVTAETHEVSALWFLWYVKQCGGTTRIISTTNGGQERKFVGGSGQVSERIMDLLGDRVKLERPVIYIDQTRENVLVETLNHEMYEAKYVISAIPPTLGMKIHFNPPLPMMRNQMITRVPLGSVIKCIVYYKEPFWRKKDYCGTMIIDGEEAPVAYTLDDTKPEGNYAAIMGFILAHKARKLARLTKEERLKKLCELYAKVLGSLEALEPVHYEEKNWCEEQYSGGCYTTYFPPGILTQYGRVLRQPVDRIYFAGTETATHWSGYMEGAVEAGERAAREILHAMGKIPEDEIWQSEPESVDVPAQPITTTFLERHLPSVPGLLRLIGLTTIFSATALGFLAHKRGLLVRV
# [4] = target: T3, Amine oxidase [flavin-containing] A (Homo sapiens, UniProt P21397); experiment: Inhibition of MAO-A (unknown origin) using MAO substrate incubated for 1 hr by MAO-Glo assay
# T3 sequence (P21397 whole entry): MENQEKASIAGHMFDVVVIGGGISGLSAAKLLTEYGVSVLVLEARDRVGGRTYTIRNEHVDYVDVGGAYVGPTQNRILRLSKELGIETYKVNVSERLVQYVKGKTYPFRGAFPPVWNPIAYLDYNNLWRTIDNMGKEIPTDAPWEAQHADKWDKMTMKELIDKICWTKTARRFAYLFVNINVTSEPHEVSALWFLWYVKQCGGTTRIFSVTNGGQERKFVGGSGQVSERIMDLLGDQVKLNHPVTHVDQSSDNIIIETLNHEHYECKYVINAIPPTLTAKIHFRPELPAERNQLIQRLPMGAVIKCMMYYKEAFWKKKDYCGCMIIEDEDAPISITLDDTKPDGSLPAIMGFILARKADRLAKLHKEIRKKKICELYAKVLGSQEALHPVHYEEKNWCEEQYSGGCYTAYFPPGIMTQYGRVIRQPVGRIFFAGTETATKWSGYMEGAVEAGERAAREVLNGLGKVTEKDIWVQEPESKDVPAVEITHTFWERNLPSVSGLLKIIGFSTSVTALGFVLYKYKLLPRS
# [5] = target: T3, Amine oxidase [flavin-containing] A; experiment: Inhibition of human recombinant MAO-A using 3-(2-Aminophenyl)-3-oxopropanamine as substrate preincubated for 15 mins followed by substrate addition measured after 1 hr by fluorescence microplate reader analysis
# [6] = target: T1, Lysine-specific histone demethylase 1A; experiment: Inhibition of recombinant human N-terminal GST-tagged KDM1A expressed in Escherichia coli using H3K4me2 as substrate preincubated for 15 mins followed by substrate addition measured after 1 hr by peroxidase coupled enzyme assay
# [7] = target: T2, Amine oxidase [flavin-containing] B; experiment: Inhibition of human recombinant MAO-B using 3-(2-Aminophenyl)-3-oxopropanamine as substrate preincubated for 15 mins followed by substrate addition measured after 1 hr by fluorescence microplate reader analysis
# [8] = target: T4, Lysine-specific demethylase 4C (Homo sapiens, UniProt Q9H3R0); experiment: Inhibition of KDM4C (1 to 350 residues) (unknown origin) expressed in Escherichia coli using […] as substrate
# T4 sequence (Q9H3R0 whole entry): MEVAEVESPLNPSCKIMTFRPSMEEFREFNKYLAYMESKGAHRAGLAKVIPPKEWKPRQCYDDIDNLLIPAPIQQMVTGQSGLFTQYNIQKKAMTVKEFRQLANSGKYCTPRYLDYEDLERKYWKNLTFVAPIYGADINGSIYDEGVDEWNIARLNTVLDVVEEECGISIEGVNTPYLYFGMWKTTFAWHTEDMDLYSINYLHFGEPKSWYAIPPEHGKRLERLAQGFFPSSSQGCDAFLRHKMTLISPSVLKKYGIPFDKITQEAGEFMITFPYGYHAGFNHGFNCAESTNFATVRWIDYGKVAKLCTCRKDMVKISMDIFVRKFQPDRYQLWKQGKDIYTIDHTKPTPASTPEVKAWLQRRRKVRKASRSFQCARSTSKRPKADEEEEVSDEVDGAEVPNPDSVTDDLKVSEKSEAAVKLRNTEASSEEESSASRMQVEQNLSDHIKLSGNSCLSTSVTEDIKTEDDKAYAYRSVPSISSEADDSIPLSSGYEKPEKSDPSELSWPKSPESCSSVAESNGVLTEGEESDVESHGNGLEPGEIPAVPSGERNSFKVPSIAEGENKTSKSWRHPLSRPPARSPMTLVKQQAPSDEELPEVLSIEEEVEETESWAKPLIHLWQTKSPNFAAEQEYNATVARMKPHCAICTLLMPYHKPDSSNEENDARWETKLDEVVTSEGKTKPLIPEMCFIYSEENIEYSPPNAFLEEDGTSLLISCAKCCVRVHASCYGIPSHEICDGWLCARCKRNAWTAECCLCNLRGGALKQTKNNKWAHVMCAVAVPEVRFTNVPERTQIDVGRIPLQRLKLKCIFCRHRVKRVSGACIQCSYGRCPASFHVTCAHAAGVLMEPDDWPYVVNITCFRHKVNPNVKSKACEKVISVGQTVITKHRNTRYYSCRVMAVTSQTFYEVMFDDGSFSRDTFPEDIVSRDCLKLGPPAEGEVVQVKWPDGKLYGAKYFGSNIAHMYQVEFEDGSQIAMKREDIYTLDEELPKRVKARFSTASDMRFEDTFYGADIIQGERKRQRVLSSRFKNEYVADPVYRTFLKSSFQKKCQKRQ
# [9] = Antiproliferative activity against human PC3 cells assessed as reduction in cell viability by MTT assay; type: functional, cell-based; settings: PC-3
# [10] = target: T5, Lysine-specific demethylase 4A (Homo sapiens, UniProt O75164)
# T5 sequence (O75164 whole entry): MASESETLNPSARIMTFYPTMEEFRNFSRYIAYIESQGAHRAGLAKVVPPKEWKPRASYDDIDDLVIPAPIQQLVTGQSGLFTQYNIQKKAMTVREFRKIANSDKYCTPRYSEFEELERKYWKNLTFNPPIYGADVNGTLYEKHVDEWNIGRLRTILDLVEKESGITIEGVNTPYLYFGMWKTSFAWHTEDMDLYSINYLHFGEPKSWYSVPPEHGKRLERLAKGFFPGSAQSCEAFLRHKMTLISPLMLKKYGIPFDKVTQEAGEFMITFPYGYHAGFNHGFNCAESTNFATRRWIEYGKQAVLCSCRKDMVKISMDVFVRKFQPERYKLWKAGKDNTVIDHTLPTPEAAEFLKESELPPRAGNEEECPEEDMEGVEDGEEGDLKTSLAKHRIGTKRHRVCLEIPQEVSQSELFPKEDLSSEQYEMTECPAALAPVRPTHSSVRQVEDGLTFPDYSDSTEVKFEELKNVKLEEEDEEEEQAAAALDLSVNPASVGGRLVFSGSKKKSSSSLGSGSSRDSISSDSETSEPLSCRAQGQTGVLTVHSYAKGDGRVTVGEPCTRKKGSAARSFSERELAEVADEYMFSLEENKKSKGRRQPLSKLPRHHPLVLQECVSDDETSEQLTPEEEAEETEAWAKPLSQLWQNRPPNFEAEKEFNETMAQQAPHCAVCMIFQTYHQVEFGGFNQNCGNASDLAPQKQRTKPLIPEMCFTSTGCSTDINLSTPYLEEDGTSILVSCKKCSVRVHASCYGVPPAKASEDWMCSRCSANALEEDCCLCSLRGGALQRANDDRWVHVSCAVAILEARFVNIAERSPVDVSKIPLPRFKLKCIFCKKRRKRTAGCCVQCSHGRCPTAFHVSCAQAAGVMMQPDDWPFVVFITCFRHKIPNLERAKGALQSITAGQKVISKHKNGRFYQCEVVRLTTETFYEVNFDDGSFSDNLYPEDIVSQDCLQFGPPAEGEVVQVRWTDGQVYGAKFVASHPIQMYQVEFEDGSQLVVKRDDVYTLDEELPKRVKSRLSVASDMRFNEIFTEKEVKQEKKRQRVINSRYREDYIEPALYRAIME
# [11] = Antiproliferative activity against human VCaP cells assessed as reduction in cell viability by MTT assay; type: functional, cell-based
# LNCaP = experiment: Antiproliferative activity against human LNCAP cells assessed as reduction in cell viability by MTT assay; type: functional, cell-based
# [12] = target: Lysine-specific demethylase 5A (Homo sapiens, UniProt P29375)
# [13] = target: T6, Lysine-specific demethylase 4B (Homo sapiens, UniProt O94953); experiment: biochemical
# T6 sequence (O94953 whole entry): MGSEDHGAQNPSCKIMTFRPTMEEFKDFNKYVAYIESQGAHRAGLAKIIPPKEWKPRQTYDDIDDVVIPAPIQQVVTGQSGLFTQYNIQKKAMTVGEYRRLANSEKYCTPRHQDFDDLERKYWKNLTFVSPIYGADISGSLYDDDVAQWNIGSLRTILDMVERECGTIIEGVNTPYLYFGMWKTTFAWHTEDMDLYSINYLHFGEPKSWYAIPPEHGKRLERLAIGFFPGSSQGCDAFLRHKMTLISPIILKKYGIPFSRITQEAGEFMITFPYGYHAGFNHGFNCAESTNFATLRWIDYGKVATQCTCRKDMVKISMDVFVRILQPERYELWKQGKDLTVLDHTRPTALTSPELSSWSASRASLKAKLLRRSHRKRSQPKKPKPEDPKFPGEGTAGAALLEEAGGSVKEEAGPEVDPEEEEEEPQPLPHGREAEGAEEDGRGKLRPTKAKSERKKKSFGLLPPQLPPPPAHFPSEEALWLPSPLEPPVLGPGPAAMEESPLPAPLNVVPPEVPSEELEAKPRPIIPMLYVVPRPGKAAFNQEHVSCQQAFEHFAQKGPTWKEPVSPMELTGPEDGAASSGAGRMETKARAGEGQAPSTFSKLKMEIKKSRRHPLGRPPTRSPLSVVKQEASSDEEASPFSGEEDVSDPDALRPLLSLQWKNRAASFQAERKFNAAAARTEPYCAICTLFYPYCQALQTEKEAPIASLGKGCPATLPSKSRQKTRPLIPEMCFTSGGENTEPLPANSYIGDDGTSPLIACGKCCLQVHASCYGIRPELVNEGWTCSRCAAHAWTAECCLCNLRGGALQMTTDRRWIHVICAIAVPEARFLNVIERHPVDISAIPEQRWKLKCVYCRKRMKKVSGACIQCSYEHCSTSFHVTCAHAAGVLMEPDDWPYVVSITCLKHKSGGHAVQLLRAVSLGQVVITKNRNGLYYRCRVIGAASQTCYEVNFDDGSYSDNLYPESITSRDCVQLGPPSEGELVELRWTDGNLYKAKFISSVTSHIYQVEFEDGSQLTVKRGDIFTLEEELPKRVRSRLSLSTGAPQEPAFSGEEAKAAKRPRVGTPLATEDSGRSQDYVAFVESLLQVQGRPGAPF
# [14] = target: T1, Lysine-specific histone demethylase 1A; experiment: Inhibition of full length human KDM1A expressed in Escherichia coli using biotin-H3K4me1 as substrate incubated for 1 hr by TR-FRET assay
# [15] = target: T1, Lysine-specific histone demethylase 1A; experiment: Inhibition of KDM1A in human THP1 cells assessed as inhibition of CD11b expressing cells incubated for 4 days by DAPI staining based flow cytometry; type: cell-based, THP-1
# [16] = target: T3, Amine oxidase [flavin-containing] A; experiment: Inhibition of human recombinant MAO-A expressed in Pichia pastoris preincubated for 15 mins followed by substrate addition measured after 30 mins by MAO-Glo assay
# [17] = target: T2, Amine oxidase [flavin-containing] B; experiment: Inhibition of human recombinant MAO-B expressed in Pichia pastoris preincubated for 15 mins followed by substrate addition measured after 30 mins by MAO-Glo assay
# [18] = target: T1, Lysine-specific histone demethylase 1A; experiment: Inhibition of human recombinant KDM1A expressed in Escherichia coli using H3K4me peptide substrate preincubated for 15 mins followed substrate addition measured after 12 mins by peroxidase coupled enzyme assay
# [19] = target: T1, Lysine-specific histone demethylase 1A; experiment: biochemical
# [20] = target: T2, Amine oxidase [flavin-containing] B
# [21] = target: T3, Amine oxidase [flavin-containing] A; experiment: Inhibition of MAO-A (unknown origin) preincubated for 10 mins followed by substrate addition measured after 60 mins by MAO-Glo assay
# Chain of Lysine-specific demethylase 5A (P29375 whole entry): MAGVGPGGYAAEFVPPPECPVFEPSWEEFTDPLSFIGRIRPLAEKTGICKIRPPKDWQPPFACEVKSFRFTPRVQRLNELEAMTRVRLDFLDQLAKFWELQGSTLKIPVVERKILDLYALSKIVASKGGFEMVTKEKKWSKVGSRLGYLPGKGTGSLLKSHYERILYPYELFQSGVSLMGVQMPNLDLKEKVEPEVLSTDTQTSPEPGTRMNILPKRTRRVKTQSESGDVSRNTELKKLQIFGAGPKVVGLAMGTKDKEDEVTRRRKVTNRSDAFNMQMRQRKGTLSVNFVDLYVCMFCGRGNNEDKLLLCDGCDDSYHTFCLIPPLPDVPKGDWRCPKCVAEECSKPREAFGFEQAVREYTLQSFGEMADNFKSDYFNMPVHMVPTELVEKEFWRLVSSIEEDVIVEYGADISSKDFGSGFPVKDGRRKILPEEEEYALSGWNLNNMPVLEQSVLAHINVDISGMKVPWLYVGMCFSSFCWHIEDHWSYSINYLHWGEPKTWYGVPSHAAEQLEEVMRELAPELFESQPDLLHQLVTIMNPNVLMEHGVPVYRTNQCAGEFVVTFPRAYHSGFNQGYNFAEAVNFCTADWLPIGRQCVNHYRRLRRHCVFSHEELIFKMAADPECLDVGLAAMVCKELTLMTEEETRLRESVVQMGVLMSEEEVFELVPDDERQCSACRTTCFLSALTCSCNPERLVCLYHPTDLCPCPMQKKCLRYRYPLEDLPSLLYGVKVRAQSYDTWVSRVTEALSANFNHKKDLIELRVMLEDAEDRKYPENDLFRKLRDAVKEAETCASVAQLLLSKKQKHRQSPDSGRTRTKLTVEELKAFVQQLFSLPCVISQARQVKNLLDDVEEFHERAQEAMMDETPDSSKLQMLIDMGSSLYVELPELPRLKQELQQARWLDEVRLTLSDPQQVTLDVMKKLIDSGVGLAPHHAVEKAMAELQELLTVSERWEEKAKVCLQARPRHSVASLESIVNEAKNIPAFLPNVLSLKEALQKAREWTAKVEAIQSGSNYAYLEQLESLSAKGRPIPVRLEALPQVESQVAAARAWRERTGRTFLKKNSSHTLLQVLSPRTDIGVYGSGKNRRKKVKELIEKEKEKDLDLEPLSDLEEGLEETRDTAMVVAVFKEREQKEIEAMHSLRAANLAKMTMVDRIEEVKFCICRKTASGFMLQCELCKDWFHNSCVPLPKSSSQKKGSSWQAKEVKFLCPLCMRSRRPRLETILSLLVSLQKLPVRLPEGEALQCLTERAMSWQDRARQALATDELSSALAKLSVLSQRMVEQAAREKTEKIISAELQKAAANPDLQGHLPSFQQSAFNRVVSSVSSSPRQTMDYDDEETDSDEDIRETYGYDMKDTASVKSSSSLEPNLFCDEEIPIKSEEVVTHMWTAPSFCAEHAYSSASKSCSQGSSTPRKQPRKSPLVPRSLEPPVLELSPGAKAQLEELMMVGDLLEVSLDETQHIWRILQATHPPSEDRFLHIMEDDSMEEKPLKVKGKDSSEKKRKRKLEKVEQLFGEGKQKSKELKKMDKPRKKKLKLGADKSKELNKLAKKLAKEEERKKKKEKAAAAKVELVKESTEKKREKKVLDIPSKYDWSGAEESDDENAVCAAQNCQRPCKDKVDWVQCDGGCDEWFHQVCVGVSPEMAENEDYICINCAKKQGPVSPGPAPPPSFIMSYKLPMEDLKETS
smiles,measurement,setting,value
O=C(N[C@@H](CCCCN[C@@H]1C[C@H]1c1ccc(F)cc1)C(=O)NCc1ccc(F)cc1)c1ccccc1,IC50,[1],< 1000 nM
CSCCc1nc(-c2cc(N)ccc2Cl)oc1C,IC50,[2],10100 nM
same,IC50,HeLa,1.2 nM
same,IC50,MDA-MB-231,1.2 nM
O=C(N[C@@H](CCCCN[C@@H]1C[C@H]1c1ccccc1)C(=O)NCc1cccc(Cl)c1)c1ccc(-c2ccccc2)cc1,IC50,[3],> 100000 nM
same,IC50,[4],> 100000 nM
CC(C)S(=O)(=O)Nc1cccc(-c2ccc([C@H]3C[C@@H]3N)cc2)c1,IC50,[5],> 1000 nM
same,IC50,[6],70 nM
same,IC50,[7],> 10000 nM
O=C(NCCCc1ccccc1)c1cccc(-c2cc(O)c3ncccc3c2)c1,IC50,[8],< 1000 nM
same,IC50,[9],40 nM
same,IC50,[10],< 1000 nM
same,IC50,[11],< 1000 nM
same,IC50,LNCaP,< 1000 nM
same,IC50,[12],> 10000 nM
same,IC50,[13],10 nM
Cc1ccc(-c2cnc(NC[C@H]3CCNC3)nc2-c2ccc(C#N)cc2)cc1,IC50,[14],< 10 nM
same,IC50,[15],< 10 nM
CN1CCN(c2ccc(C(=O)Nc3ccc([C@@H]4C[C@]4(N)CCc4ccccc4)cc3)cc2)CC1 (racemic),IC50,[16],> 10000 nM
same,IC50,[17],> 10000 nM
same,IC50,[18],< 100 nM
Cc1ncc(NC(=O)c2cccc([C@@H]3C[C@H]3NC3CCOCC3)c2)s1 (racemic),IC50,[19],< 1000 nM
same,IC50,[20],> 10000 nM
same,IC50,[21],> 10000 nM
